Laboratory results taken from ChEMBL document CHEMBL3885861, “Open TG-GATES”.

Species on record: Rattus norvegicus
Assay: Open TG-GATES - Regimen: Daily Repeat
Assay type: toxicity, organism-based, Sprague-Dawley
Parameters: regimen Daily Repeat, gender Male, age 6 weeks
Settings: in vivo, po, 0 mg/kg, route gavage, dose level Control; for APTT / Bas / Eos / Fbg / Hb / Ht / Lym / MCH / MCHC / MCV / Mono / Neu / PT / Plat / RBC / Ret / WBC: tissue Blood; for KIDNEY_L / KIDNEY_R / KIDNEY_TOTAL: tissue Kidney; for LIVER: tissue Liver; for A/G / ALP / ALT / AST / BUN / CRE / Ca / Cl / DBIL / GLC / IP / K / LDH / Na / PL / RALB / TBIL / TC / TG / TP / gamma-GTP: tissue Plasma

`ClC(Cl)(Cl)Cl` [CARBON TETRACHLORIDE] was tested, and the TERMINAL_BW (72 h, time 3 day) was 223.2 g, the APTT (72 h, time 3 day) was 17 s and the Bas (72 h, time 3 day) was 0%. The Eos (72 h, time 3 day) was 1%, the Fbg (72 h, time 3 day) was 234.4 mg/dL and the Hb (72 h, time 3 day) was 13.7 g/dL. The Ht (72 h, time 3 day) was 40.1%, the Lym (72 h, time 3 day) was 82.4% and the MCH (72 h, time 3 day) was 21.8 pg. The MCHC (72 h, time 3 day) was 34.2%, the MCV (72 h, time 3 day) was 63.7 fL and the Mono (72 h, time 3 day) was 2.8%. The Neu (72 h, time 3 day) was 13%, the PT (72 h, time 3 day) was 11.6 s and the Plat (72 h, time 3 day) was 129.5 x10_4/uL. It also gave an RBC (72 h, time 3 day) of 629.2 x10_4/ul, a Ret (72 h, time 3 day) of 7.4% and a WBC (72 h, time 3 day) of 96.4 x10_2/uL. It also gave a KIDNEY_L (72 h, time 3 day) of 0.9 g, a KIDNEY_R (72 h, time 3 day) of 1 g and a KIDNEY_TOTAL (72 h, time 3 day) of 1.9 g. For the same compound, the LIVER (72 h, time 3 day) was 10.9 g, the A/G (72 h, time 3 day) was 1.5 and the ALP (72 h, time 3 day) was 1075.2 IU/L. The ALT (72 h, time 3 day) was 44.8 IU/L, the AST (72 h, time 3 day) was 71.2 IU/L and the BUN (72 h, time 3 day) was 16.2 mg/dL. For the same compound, the CRE (72 h, time 3 day) was 0.4 mg/dL, the Ca (72 h, time 3 day) was 10.9 mg/dL and the Cl (72 h, time 3 day) was 103 meq/L. It also gave a DBIL (72 h, time 3 day) of 0.08 mg/dL, a GLC (72 h, time 3 day) of 206.4 mg/dL and an IP (72 h, time 3 day) of 7.5 mg/dL. It also gave a K (72 h, time 3 day) of 3.9 meq/L, an LDH (72 h, time 3 day) of 208.6 IU/L and a Na (72 h, time 3 day) of 140 meq/L. It also gave a PL (72 h, time 3 day) of 155.4 mg/dL, an RALB (72 h, time 3 day) of 3.2 g/dL and a TBIL (72 h, time 3 day) of 0.1 mg/dL. The TC (72 h, time 3 day) was 82.4 mg/dL, the TG (72 h, time 3 day) was 86.6 mg/dL and the TP (72 h, time 3 day) was 5.5 g/dL. The gamma-GTP (72 h, time 3 day) was 1 IU/L, the TERMINAL_BW ([…], time 7 day) was 257 g and the TERMINAL_BW ([…], time 14 day) was 300.9 g. For the same compound, the TERMINAL_BW ([…], time 28 day) was 389 g, the APTT ([…], time 7 day) was 18.3 s and the Bas ([…], time 7 day) was 0%. It also gave an Eos ([…], time 7 day) of 1%, a Fbg ([…], time 7 day) of 249.4 mg/dL and a Hb ([…], time 7 day) of 13.9 g/dL. The Ht ([…], time 7 day) was 40.1%, the Lym ([…], time 7 day) was 84.6% and the MCH ([…], time 7 day) was 21.6 pg. For the same compound, the MCHC ([…], time 7 day) was 34.8%, the MCV ([…], time 7 day) was 61.9 fL and the Mono ([…], time 7 day) was 2.6%. The Neu ([…], time 7 day) was 11.2%, the PT ([…], time 7 day) was 11.5 s and the Plat ([…], time 7 day) was 129.8 x10_4/uL. It also gave an RBC ([…], time 7 day) of 647.4 x10_4/ul, a Ret ([…], time 7 day) of 6.1% and a WBC ([…], time 7 day) of 111 x10_2/uL. It also gave an APTT ([…], time 14 day) of 20.1 s, a Bas ([…], time 14 day) of 0% and an Eos ([…], time 14 day) of 0.8%. It also gave a Fbg ([…], time 14 day) of 239 mg/dL, a Hb ([…], time 14 day) of 14.6 g/dL and a Ht ([…], time 14 day) of 42.9%. For the same compound, the Lym ([…], time 14 day) was 80.8%, the MCH ([…], time 14 day) was 20 pg and the MCHC ([…], time 14 day) was 34%. It also gave an MCV ([…], time 14 day) of 58.9 fL, a Mono ([…], time 14 day) of 2.6% and a Neu ([…], time 14 day) of 15%. It also gave a PT ([…], time 14 day) of 11.5 s, a Plat ([…], time 14 day) of 124 x10_4/uL and an RBC ([…], time 14 day) of 728 x10_4/ul. For the same compound, the Ret ([…], time 14 day) was 3.9%, the WBC ([…], time 14 day) was 114.8 x10_2/uL and the APTT ([…], time 28 day) was 22.7 s. The Bas ([…], time 28 day) was 0%, the Eos ([…], time 28 day) was 1% and the Fbg ([…], time 28 day) was 227.4 mg/dL. For the same compound, the Hb ([…], time 28 day) was 15.1 g/dL, the Ht ([…], time 28 day) was 43.7% and the Lym ([…], time 28 day) was 83.8%. For the same compound, the MCH ([…], time 28 day) was 19.3 pg, the MCHC ([…], time 28 day) was 34.6% and the MCV ([…], time 28 day) was 55.7 fL. It also gave a Mono ([…], time 28 day) of 2.6%, a Neu ([…], time 28 day) of 11.8% and a PT ([…], time 28 day) of 11.9 s. For the same compound, the Plat ([…], time 28 day) was 120.7 x10_4/uL, the RBC ([…], time 28 day) was 785.8 x10_4/ul and the Ret ([…], time 28 day) was 2.8%. It also gave a WBC ([…], time 28 day) of 121 x10_2/uL, a KIDNEY_L ([…], time 7 day) of 1 g and a KIDNEY_R ([…], time 7 day) of 1 g. It also gave a KIDNEY_TOTAL ([…], time 7 day) of 2.1 g, a KIDNEY_L ([…], time 14 day) of 1.2 g and a KIDNEY_R ([…], time 14 day) of 1.1 g. The KIDNEY_TOTAL ([…], time 14 day) was 2.3 g, the KIDNEY_L ([…], time 28 day) was 1.3 g and the KIDNEY_R ([…], time 28 day) was 1.4 g. It also gave a KIDNEY_TOTAL ([…], time 28 day) of 2.7 g, an LIVER ([…], time 7 day) of 12.5 g and an LIVER ([…], time 14 day) of 12.6 g. It also gave an LIVER ([…], time 28 day) of 16.7 g, an A/G ([…], time 7 day) of 1.7 and an ALP ([…], time 7 day) of 922.4 IU/L. It also gave an ALT ([…], time 7 day) of 34.2 IU/L, an AST ([…], time 7 day) of 62.4 IU/L and a BUN ([…], time 7 day) of 16.2 mg/dL. For the same compound, the CRE ([…], time 7 day) was 0.4 mg/dL, the Ca ([…], time 7 day) was 10.7 mg/dL and the Cl ([…], time 7 day) was 104 meq/L. For the same compound, the DBIL ([…], time 7 day) was 0.1 mg/dL, the GLC ([…], time 7 day) was 204.2 mg/dL and the IP ([…], time 7 day) was 7.4 mg/dL. It also gave a K ([…], time 7 day) of 4.2 meq/L, an LDH ([…], time 7 day) of 201.8 IU/L and a Na ([…], time 7 day) of 139.8 meq/L. It also gave a PL ([…], time 7 day) of 165.4 mg/dL, an RALB ([…], time 7 day) of 3.5 g/dL and a TBIL ([…], time 7 day) of 0.2 mg/dL. For the same compound, the TC ([…], time 7 day) was 81.8 mg/dL, the TG ([…], time 7 day) was 126.4 mg/dL and the TP ([…], time 7 day) was 5.5 g/dL. The gamma-GTP ([…], time 7 day) was 1.2 IU/L, the A/G ([…], time 14 day) was 1.4 and the ALP ([…], time 14 day) was 813 IU/L. For the same compound, the ALT ([…], time 14 day) was 29.8 IU/L, the AST ([…], time 14 day) was 60.2 IU/L and the BUN ([…], time 14 day) was 14 mg/dL. The CRE ([…], time 14 day) was 0.5 mg/dL, the Ca ([…], time 14 day) was 10.4 mg/dL and the Cl ([…], time 14 day) was 103.8 meq/L. The DBIL ([…], time 14 day) was 0.062 mg/dL, the GLC ([…], time 14 day) was 215.8 mg/dL and the IP ([…], time 14 day) was 7.3 mg/dL. For the same compound, the K ([…], time 14 day) was 3.7 meq/L, the LDH ([…], time 14 day) was 209.6 IU/L and the Na ([…], time 14 day) was 142.4 meq/L. The PL ([…], time 14 day) was 135.6 mg/dL, the RALB ([…], time 14 day) was 3.5 g/dL and the TBIL ([…], time 14 day) was 0.1 mg/dL. It also gave a TC ([…], time 14 day) of 69 mg/dL, a TG ([…], time 14 day) of 73.4 mg/dL and a TP ([…], time 14 day) of 5.9 g/dL. The gamma-GTP ([…], time 14 day) was 1 IU/L, the A/G ([…], time 28 day) was 1.4 and the ALP ([…], time 28 day) was 495 IU/L. It also gave an ALT ([…], time 28 day) of 31.2 IU/L, an AST ([…], time 28 day) of 60.4 IU/L and a BUN ([…], time 28 day) of 16.4 mg/dL. It also gave a CRE ([…], time 28 day) of 0.5 mg/dL, a Ca ([…], time 28 day) of 10.5 mg/dL and a Cl ([…], time 28 day) of 102.2 meq/L. For the same compound, the DBIL ([…], time 28 day) was 0.07 mg/dL, the GLC ([…], time 28 day) was 238 mg/dL and the IP ([…], time 28 day) was 6.9 mg/dL. It also gave a K ([…], time 28 day) of 3.9 meq/L, an LDH ([…], time 28 day) of 211.6 IU/L and a Na ([…], time 28 day) of 140.4 meq/L. The PL ([…], time 28 day) was 143.8 mg/dL, the RALB ([…], time 28 day) was 3.5 g/dL and the TBIL ([…], time 28 day) was 0.1 mg/dL. It also gave a TC ([…], time 28 day) of 72.4 mg/dL, a TG ([…], time 28 day) of 83 mg/dL and a TP ([…], time 28 day) of 6 g/dL. For the same compound, the gamma-GTP ([…], time 28 day) was 0.8 IU/L.
